Experiments:
HDAC1 [1] = target: T1, HDAC1 (Homo sapiens, UniProt Q13547); experiment: Immunoblot HDAC1 degradation in MM.1S cell lysates; type: cell-based; parameters: endogenous in cells; host or cells: MM.1S; settings: MM1.S, MM.1S cells, 24 h, read-out: maximal degradation (Dmax) HDAC1
Protocol: (§1) Figure 6 Examination of HDAC isoform degradation. MM.1S cells were treated with the indicated compounds (10 μM) or vehicle (DMSO) for 24 h. HDAC1, 2, 4, and 6 levels were analyzed by immunoblotting. (A) Representative images from a total of n=3 biological replicates.
(§2) 2.5. Aqueous Stability Assay
(§3) For stability testing in aqueous solution, a 10-fold concentrated DMSO solution of the respective compounds was diluted in DPBS to generate a 10 µM concentration (final DMSO content of 10%).
Samples of the aqueous solutions were taken after 0, 24, 48, and 72 h at room temperature and the amounts of the parental compound and potential fragments were monitored by HPLC gradient A (see 3.1 General Information). […]
Afterwards, proteins were transferred with the Trans -Blot Turbo Transfer System (Catalog# 1704150, Bio-Rad) to Immobilon-FL PVDF membranes (Catalog# IPFL00005, Mill ipore Merck, Burlington, MA, USA) at 1.0 A for 30 min and treated with 5% milk-powder solution for 1 h at room temperature under slight agitation. […] The ChemiDoc XRS+ System (Catalog# 1708265 , Bio-Rad) was used for detection and Image Lab Software 6.1 (Bio-Rad) for quantification. […]
(§4) In vitro inhibitory activities against HDAC1, 2 , and 6 were measured using a previously published protocol.[3] In vitro inhibitory activities against HDAC4 were measured using a previously published protocol with slight modifications. […]

HDAC1 [2] = target: T1, HDAC1; experiment: HDAC enzyme inhibition assay; type: biochemical; parameters: purchased BPS Bioscience 50051
Protocol: Bio-Rad) to Immobilon-FL PVDF membranes (Catalog# IPFL00005, Mill ipore Merck, Burlington, MA, USA) at 1.0 A for 30 min and treated with 5% milk-powder solution for 1 h at room temperature […]
Signaling Technology) antibody solutions in 1:1000 –1:8000 dilutions at 4 °C overnight. […]
Significance testing was performed with a one -way analysis of variance (ANOVA). Dunnett’s post -hoc test was employed to obtain significance levels of each mean compared to a reference mean value.
2.7. HDAC Enzyme Inhibition Assay […]
[4] For test compounds and controls, serial dilutions of the respective DMSO stock solution in DMSO were prepared, and 1.0 μL /well of this serial dilution were transferred […]
into OptiPlate-96 black microplates (PerkinElmer, Waltham, […], USA). A volume of 4 µL/well assay […]
BSA) was added. In the case of HDAC1, 2, and 6, a volume of 35 μL/well of the fluorogenic substrate […]
The total assay volume of 50 μL (max. 2 % DMSO) was incubated at 37 °C for 90 min. Subsequently, 50 μL /well of trypsin (0.4 mg/mL) in trypsin buffer (50 mM Tris−HCl, pH 8.0, 100 mM NaCl) was added, followed by additional 30 min of incubation at […]
OPTIMA microplate reader (BMG labtech, Ortenburg, Germany). The half maximal inhibitory concentration (IC50) was determined by plotting dose response curves and nonlinear regression with GraphPad Prism (GraphPad Software).
2.8. MTT Cell Viability Assay […]

HDAC1, 2, 4, and 6 = experiment: Immunoblot HDAC isoform degradation in MM.1S, all tested isoforms; type: cell-based, human; settings: MM.1S cells, 10 μM, 24 h
Protocol: as §1, §2, §3
Samples of the aqueous solutions were taken after 0, 24, 48, and 72 h at room temperature and the amounts of the parental compound and potential fragments were monitored by HPLC gradient A (see 3.1 General Information). The peak area of the 0 h sample was used for normalization. All compounds were tested in duplicates and GraphPad Prim was used for evaluation and data visualization.
The cell lysis was performed as descripted in 3.2. Simple Western Immunoassay. Samples were denatured by Laemmli 2× Concentrate (Catalog# S3401-10VL, Sigma-Aldrich) for 5 min at 95 °C, and […]
Bio-Rad, Hercules, CA, USA). […]
6.1 (Bio-Rad) for quantification. […]
as §4

T1 sequence (Q13547 whole entry, canonical isoform): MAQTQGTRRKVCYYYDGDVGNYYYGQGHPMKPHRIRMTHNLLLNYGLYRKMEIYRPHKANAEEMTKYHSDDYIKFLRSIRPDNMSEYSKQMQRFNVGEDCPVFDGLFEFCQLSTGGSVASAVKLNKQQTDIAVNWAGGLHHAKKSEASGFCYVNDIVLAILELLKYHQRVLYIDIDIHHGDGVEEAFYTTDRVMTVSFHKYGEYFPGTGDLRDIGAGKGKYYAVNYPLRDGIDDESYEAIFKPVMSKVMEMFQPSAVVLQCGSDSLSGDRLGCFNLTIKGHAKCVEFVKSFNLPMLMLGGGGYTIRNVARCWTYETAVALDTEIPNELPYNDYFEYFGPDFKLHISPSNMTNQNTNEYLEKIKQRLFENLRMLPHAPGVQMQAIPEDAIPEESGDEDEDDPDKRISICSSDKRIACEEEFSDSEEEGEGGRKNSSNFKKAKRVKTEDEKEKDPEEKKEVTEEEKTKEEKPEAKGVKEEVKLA

| Dmax at 10 µM (HDAC1 [1]) [%] | IC50 (HDAC1 [2]) [nM] | Structure (SMILES) | Dmax, all four tested isoforms / other HDAC isoforms (HDAC1, 2, 4, and 6) |
| --- | --- | --- | --- |
| 90 | 1030 ± 40 | O=C(CCCCCCNC(=O)c1ccc(NC(=O)CCCCCCCCCCCN(C(=O)CCl)C(C(=O)NCc2ccccc2)c2ccc(Cl)c(Cl)c2)cc1)NO (centres unmarked) [Compound 1j] | 71–90% |
| 74 | 159 ± 44 | O=C(CCCCCCNC(=O)c1ccc(N(C(=O)CCl)C(C(=O)NCc2ccccc2)c2ccc(Cl)c(Cl)c2)cc1)NO (centres unmarked) [Compound 2] | – |

— article PMC12091851, “Replacing a Cereblon Ligand by a DDB1 and CUL4 Associated Factor 11 (DCAF11) Recruiter Converts a Selective Histone Deacetylase 6 PROTAC into a Pan‐Degrader” (Chemmedchem, 2025)
